{"source": "patent US12414947B2", "about": "“Use of FGFR inhibitors for treatment of idiopathic short stature” (CEDARS-SINAI MEDICAL CENTER, priority 2019, dated 2025)", "key": {"[1]": {"system": "Patient normal fibroblasts", "test": "Immunoblot analysis for apoptosis markers (FIG. 5)", "assay_type": "cell-based, human", "source_text": "FIG. 5 depicts the effects on apoptosis."}, "[2]": {"system": "Patient normal fibroblast cells", "test": "Cell Survival Assay (WST-1) (FIGS. 6, 7)", "assay_type": "cell-based, human", "experimental": "Fibroblasts were seeded 5×10^4 cells/well (96 well format), grow in αMEM+15% for 24 hr. […] WST-1 reagent was added, 10 μl/well, 1 hr, spectrophotometry analysis. 3 wells per test sample. NC, normal control.\nAssay set up as described in FIG. 6, except IGF-I (100 ng/ml), IGF2 (100 ng/ml) or FGF2 (40 ng/ml) added as indicated. Cell survival was assayed over 5 days."}, "[3]": {"system": "pERK1/2 and pAKT signaling in Patient normal fibroblast cells", "conditions": "IGF-I 100 ng/ml, IGF-2 100 ng/ml; erdafitinib 0-300 nM", "source_text": "FIG. 4 depicts signaling effects. […] Test working hypothesis using Patient's normal fibroblast cells as the model system. Fibroblasts, grown in αMEM+15% FBS till ˜80% confluency, were serum-starve for 18 hr in αMEM+0.1% BSA.\nIn vitro assays, with read-outs: signaling (pERK, pAKT), proliferation/survival assays (WST-1)."}, "[4]": {"test": "Case report: height growth of patient CC0419 during erdafitinib therapy", "assay_type": "in vivo, human", "source_text": "FIG. 1 depicts a child's growth chart.\n(§1) […], they underwent a biopsy for a second recurrence."}, "[5]": {"conditions": "in vivo", "source_text": "as §1"}, "[6]": {"test": "Example 3: child with short stature given erdafitinib", "assay_type": "in vivo, human", "conditions": "six-month period, from the 10%", "source_text": "A child presents with short stature. […] Their height growth velocity increased resulting in a jump in height from the 10% up to the 50% for their age."}}}
{"smiles": "COc1cc(OC)cc(N(CCNC(C)C)c2ccc3ncc(-c4cnn(C)c4)nc3c2)c1", "note": "[Erdafitinib, erdafitinib]", "values": [{"measurement": "apoptotic markers, cleaved Caspase 3 and cleaved PARP", "setting": "[1]; by 24 hrs, erdafitinib treated cells without IGF-I", "value": "detected"}, {"measurement": "apoptotic markers when IGF-I was present", "setting": "[1]; lysates 24 and 48 hr post-treatment, IGF-I 100 ng/ml", "value": "not detected (or significantly blunted)"}, {"measurement": "cell survival (WST-1)", "setting": "[2]; 0-300 nM, 1-5 days, serum-free media, 5×10^4 cells/well", "value": "dose-dependently decreased survival"}, {"measurement": "survival of erdafitinib-treated cells with growth factors (WST-1)", "setting": "[2]; IGF-I 100 ng/ml, IGF2 100 ng/ml or FGF2 40 ng/ml, over 5 days", "value": "IGF-I, but not FGF2, has significant protective effects"}, {"measurement": "pERK1/2 in presence of ligands (IGF-1, IGF2)", "setting": "[3]", "value": "remains erdafitinib-suppressed"}, {"measurement": "total growth in height", "setting": "[4]; 9-month therapy (7 mg then 5 mg orally daily) plus one month after cessation", "value": 14.3, "unit": "cm"}, {"measurement": "total growth in height", "setting": "[4]; 9-month therapy plus one month after cessation", "value": 5.63, "unit": "inches"}, {"measurement": "height percentile", "setting": "[4]; 10 months from initiation of treatment, from 15th percentile", "value": 70, "unit": "percentile"}, {"measurement": "growth velocity", "setting": "[4]; on therapy, from 3.653 cm/year before", "value": 18.06, "unit": "cm/year"}, {"measurement": "growth velocity (percentile)", "setting": "[4]; on therapy, from 40% before, wildtype germline FGFR", "value": "> 99", "unit": "%"}, {"measurement": "height percentile", "setting": "[4]; starting ~2 months into therapy, from ~15 percentile", "value": 23, "unit": "percentile"}, {"measurement": "height percentile", "setting": "[4]; within one month of initiating treatment, from 15th percentile, child", "value": 48, "unit": "percentile"}, {"measurement": "Dexa bone scan interpretation", "setting": "[5]", "value": "consistent with osteoporosis"}, {"measurement": "GH, random (rating)", "setting": "[5]", "value": "normal"}, {"measurement": "IGF-1 Z-score", "setting": "[5]", "value": "−1.7"}, {"measurement": "IGF-I SDS", "setting": "[5]", "value": "−1.4", "unit": "SDS"}, {"measurement": "IGF-II (rating)", "setting": "[5]", "value": "normal"}, {"measurement": "IGFBP-3 (rating)", "setting": "[5]", "value": "normal"}, {"measurement": "Metabolic panel: creatine (rating)", "setting": "[5]", "value": "below normal"}, {"measurement": "RDW (red cell distribution width)", "setting": "[5]", "value": 16.4, "unit": "%"}, {"measurement": "Testosterone, free and total (rating)", "setting": "[5]", "value": "abnormally low"}, {"measurement": "bone age", "setting": "[5]", "value": "~14", "unit": "year"}, {"measurement": "bone age delay compared to CA (x-ray hand and wrist)", "setting": "[5]", "value": "~2", "unit": "yrs"}, {"measurement": "bone age, standard deviation below the mean", "setting": "[5]", "value": "greater than 2 standard deviation"}, {"measurement": "events that led to discontinuation", "setting": "[5]", "value": "scoliosis of the thoracic region, kyphosis of the upper cervical region, and hip flexion contractures"}, {"measurement": "hyperphosphatemia", "setting": "[5]", "value": "Transient hyperphosphatemia"}, {"measurement": "lumbar spine bone density, standard deviations below mean for age-matched population", "setting": "[5]", "value": 3.8, "unit": "standard deviations"}, {"measurement": "mean bone density value for the lumbar spine (Dexa)", "setting": "[5]", "value": 0.6322, "unit": "gm/sq·cm"}, {"measurement": "musculoskeletal problems", "setting": "[5]", "value": "rapid growth and kyphosis/scoliosis which required surgery"}, {"measurement": "x-ray hand and wrist finding: osteochondrosis", "setting": "[5]", "value": "A suggestion of osteochondrosis"}, {"measurement": "x-ray hand and wrist finding: periosteal reaction", "setting": "[5]", "value": "Periosteal reaction (distal radius, ulna, first metacarpal)"}, {"measurement": "adverse events that led to dose reduction", "setting": "[5]; po", "value": "musculoskeletal pain and high phosphorus levels"}, {"measurement": "height percentile for age", "setting": "[6]", "value": 50, "unit": "%"}]}
